Data: ChEMBL document CHEMBL2203118, “Ethyl 2,4,6-trihydroxybenzoate is an agonistic ligand for liver X receptor that induces cholesterol efflux from macrophages without affecting lipid accumulation in HepG2 cells” (Bioorg Med Chem Lett, 2012)

Legend:
Details in all cases: hepg2, 1 µM
HepG2 [1] = assay: Upregulation of SREBP-1 gene expression in human HepG2 cells at 1 uM by immunoblot analysis; format: ADME, cell-based
HepG2 [2] = assay: Upregulation of SCD1 gene expression in human HepG2 cells at 1 uM by qPCR analysis; format: ADME, cell-based
HepG2 [3] = assay: Upregulation of FAS gene expression in human HepG2 cells at 1 uM by qPCR analysis; format: ADME, cell-based
HepG2 [4] = assay: Upregulation of SREBP-1 gene expression in human HepG2 cells at 1 uM by qPCR analysis; format: ADME, cell-based
HepG2 [5] = assay: Induction of lipid accumulation in human HepG2 cells assessed as increase in cellular triglyceride level at 1 uM by Oil Red O staining relative to control; format: cell-based
HepG2 [6] = assay: Induction of lipid accumulation in human HepG2 cells assessed as cellular triglyceride concentration at 1 uM; format: cell-based

Measured: Activity

O=S(=O)(c1ccccc1)N(CC(F)(F)F)c1ccc(C(O)(C(F)(F)F)C(F)(F)F)cc1 [T091317]
Toxic: all assays above
